Key:
Conditions in all cases: incubation time: 72 h
MFM-223 [1] = experiment: normalised viability (% of control), CellTiter-Blue; higher = more viable cells (about 100 = DMSO control)
In short: (§1)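 Each entry is normalised viability at a single listed concentration within a series. It comes from breast cancer cell lines incubated 72 h with compound in 384-well plates, then measured with CellTiter-Blue fluorescence at 560/590 nm. Every plate was normalised between vehicle (100) and a positive kill control (0).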

CAL-85-1 = experiment: as above
In short: as §1

MDA-MB-231 [2] = experiment: as above
In short: as §1

CAL-51 [3] = experiment: as above
In short: as §1

MDA-MB-453 = experiment: as above
In short: as §1

BT-474 = experiment: as above
In short: as §1

DU-4475 [4] = experiment: as above
In short: as §1

HDQ-P1 [5] = experiment: as above
In short: as §1

SK-BR-3 [6] = experiment: as above
In short: as §1

CAL-120 [7] = experiment: as above
In short: as §1

BT-549 = experiment: as above
In short: as §1

MDA-MB-468 = experiment: as above
In short: as §1

HCC1937 = experiment: as above
In short: as §1

CAL-148 = experiment: as above
In short: as §1

HCC1143 [8] = experiment: as above
In short: as §1

HCC1599 = experiment: as above
In short: as §1

MDA-MB-436 = experiment: as above
In short: as §1

MFM-223 [9] = experiment: normalised viability (% of control), CellTiter-Blue; higher = more viable cells (100 = DMSO, 0 = benzethonium chloride kill control)
In short: as §1

MDA-MB-231 [10] = experiment: as above
In short: as §1

CAL-51 [11] = experiment: as above
In short: as §1

DU-4475 [12] = experiment: as above
In short: as §1

HDQ-P1 [13] = experiment: as above
In short: as §1

SK-BR-3 [14] = experiment: as above
In short: as §1

Hs578T = experiment: as above
In short: as §1

CAL-120 [15] = experiment: as above
In short: as §1

HCC1143 [16] = experiment: as above
In short: as §1

C[C@]12O[C@H](C[C@]1(O)CO)n1c3ccccc3c3c4c(c5c6ccccc6n2c5c31)CNC4=O [Lestaurtinib]
Conditions | normalised viability [%]
BT-474, 1 nM | 120
BT-474, 100 nM | 110
BT-474, 1000 nM | 69
BT-549, 1 nM | 88.3
BT-549, 100 nM | 101
BT-549, 1000 nM | 41.8
CAL-51 [3], 0.3 nM | 113
CAL-51 [3], 3 nM | 108
CAL-51 [3], 10 nM | 106
CAL-51 [11], 0.1 nM | 115
CAL-85-1, 0.3 nM | 106
CAL-85-1, 3 nM | 97.8
CAL-85-1, 10 nM | 102
CAL-120 [7], 1 nM | 108
CAL-120 [7], 100 nM | 60.7
CAL-120 [7], 1000 nM | 47.5
CAL-120 [15], 0.1 nM | 101
CAL-148, 0.3 nM | 96.8
CAL-148, 3 nM | 98.6
CAL-148, 10 nM | 98.3
DU-4475 [4], 0.3 nM | 93.2
DU-4475 [4], 3 nM | 104
DU-4475 [4], 10 nM | 100
DU-4475 [12], 0.1 nM | 110
HCC1143 [8], 1 nM | 107
HCC1143 [8], 100 nM | 89.8
HCC1143 [8], 1000 nM | 61.6
HCC1143 [16], 0.1 nM | 107
HCC1599, 1 nM | 102
HCC1599, 100 nM | 94.6
HCC1599, 1000 nM | 64.8
HCC1937, 1 nM | 89
HCC1937, 100 nM | 77.4
HCC1937, 1000 nM | 31.3
HDQ-P1 [5], 0.3 nM | 119
HDQ-P1 [5], 3 nM | 112
HDQ-P1 [5], 10 nM | 126
HDQ-P1 [13], 0.1 nM | 113
Hs578T, 0.1 nM | 118
MDA-MB-231 [2], 1 nM | 112
MDA-MB-231 [2], 100 nM | 104
MDA-MB-231 [2], 1000 nM | 62.6
MDA-MB-231 [10], 0.1 nM | 115
MDA-MB-436, 1 nM | 102
MDA-MB-436, 100 nM | 93.4
MDA-MB-436, 1000 nM | 55.5
MDA-MB-453, 0.3 nM | 126
MDA-MB-453, 3 nM | 98.4
MDA-MB-453, 10 nM | 104
MDA-MB-468, 1 nM | 107
MDA-MB-468, 100 nM | 106
MDA-MB-468, 1000 nM | 51
MFM-223 [1], 1 nM | 97.6
MFM-223 [1], 100 nM | 80.9
MFM-223 [1], 1000 nM | 42.8
MFM-223 [9], 0.1 nM | 107
SK-BR-3 [6], 1 nM | 108
SK-BR-3 [6], 100 nM | 102
SK-BR-3 [6], 1000 nM | 37.2
SK-BR-3 [14], 0.1 nM | 97.7

O=C1c2c(O)ccc(O)c2C(=O)c2c(NCCNCCO)ccc(NCCNCCO)c21 [Mitoxantrone]
Conditions | normalised viability [%]
BT-474, 1 nM | 99.4
BT-474, 100 nM | 71.1
BT-474, 1000 nM | 42
BT-549, 1 nM | 82.4
BT-549, 100 nM | 69
BT-549, 1000 nM | 35.4
CAL-51 [3], 0.3 nM | 112
CAL-51 [3], 3 nM | 111
CAL-51 [3], 10 nM | 61.3
CAL-51 [11], 0.1 nM | 109
CAL-85-1, 0.3 nM | 90.3
CAL-85-1, 3 nM | 84.3
CAL-85-1, 10 nM | 86.5
CAL-120 [7], 1 nM | 73.8
CAL-120 [7], 100 nM | 44.6
CAL-120 [7], 1000 nM | 17.3
CAL-120 [15], 0.1 nM | 74.6
CAL-148, 0.3 nM | 91.2
CAL-148, 3 nM | 91.5
CAL-148, 10 nM | 57.9
DU-4475 [4], 0.3 nM | 89
DU-4475 [4], 3 nM | 91.3
DU-4475 [4], 10 nM | 45.8
DU-4475 [12], 0.1 nM | 102
HCC1143 [8], 1 nM | 83.4
HCC1143 [8], 100 nM | 56.6
HCC1143 [8], 1000 nM | 31.2
HCC1143 [16], 0.1 nM | 79.2
HCC1599, 1 nM | 97.6
HCC1599, 100 nM | 73.3
HCC1599, 1000 nM | 69.8
HCC1937, 1 nM | 65.7
HCC1937, 100 nM | 25
HCC1937, 1000 nM | 23.7
HDQ-P1 [5], 0.3 nM | 74.8
HDQ-P1 [5], 3 nM | 86.7
HDQ-P1 [5], 10 nM | 79.2
HDQ-P1 [13], 0.1 nM | 101
Hs578T, 0.1 nM | 93.6
MDA-MB-231 [2], 1 nM | 82
MDA-MB-231 [2], 100 nM | 44.2
MDA-MB-231 [2], 1000 nM | 17.4
MDA-MB-231 [10], 0.1 nM | 87.4
MDA-MB-436, 1 nM | 87.2
MDA-MB-436, 100 nM | 88.3
MDA-MB-436, 1000 nM | 40.1
MDA-MB-453, 0.3 nM | 98.7
MDA-MB-453, 3 nM | 87.1
MDA-MB-453, 10 nM | 74
MDA-MB-468, 1 nM | 97.1
MDA-MB-468, 100 nM | 57.3
MDA-MB-468, 1000 nM | 37.4
MFM-223 [1], 1 nM | 73.8
MFM-223 [1], 100 nM | 84.4
MFM-223 [1], 1000 nM | 35.2
MFM-223 [9], 0.1 nM | 84.2
SK-BR-3 [6], 1 nM | 84.2
SK-BR-3 [6], 100 nM | 34.6
SK-BR-3 [6], 1000 nM | 14.8
SK-BR-3 [14], 0.1 nM | 108

Nc1ccccc1NC(=O)c1ccc(CNc2nccc(-c3cccnc3)n2)cc1 [Mocetinostat]
Conditions | normalised viability [%]
BT-474, 10 nM | 113
BT-474, 1000 nM | 96.8
BT-474, 10000 nM | 25.6
BT-549, 10 nM | 91
BT-549, 1000 nM | 67.1
BT-549, 10000 nM | 35.9
CAL-51 [3], 3 nM | 106
CAL-51 [3], 30 nM | 96.9
CAL-51 [3], 100 nM | 97.7
CAL-51 [11], 1 nM | 93.6
CAL-85-1, 3 nM | 93.3
CAL-85-1, 30 nM | 82
CAL-85-1, 100 nM | 86.9
CAL-120 [7], 10 nM | 74.8
CAL-120 [7], 1000 nM | 40.5
CAL-120 [7], 10000 nM | 18.1
CAL-120 [15], 1 nM | 81.7
CAL-148, 3 nM | 89.2
CAL-148, 30 nM | 93.7
CAL-148, 100 nM | 99.8
DU-4475 [4], 3 nM | 97.2
DU-4475 [4], 30 nM | 98.5
DU-4475 [4], 100 nM | 103
DU-4475 [12], 1 nM | 91.3
HCC1143 [8], 10 nM | 78.5
HCC1143 [8], 1000 nM | 67
HCC1143 [8], 10000 nM | 16.7
HCC1143 [16], 1 nM | 91.1
HCC1599, 10 nM | 102
HCC1599, 1000 nM | 54.6
HCC1599, 10000 nM | 23.5
HCC1937, 10 nM | 84.4
HCC1937, 1000 nM | 70.4
HCC1937, 10000 nM | 21.4
HDQ-P1 [5], 3 nM | 108
HDQ-P1 [5], 30 nM | 119
HDQ-P1 [5], 100 nM | 74
HDQ-P1 [13], 1 nM | 84.2
Hs578T, 1 nM | 113
MDA-MB-231 [2], 10 nM | 85.7
MDA-MB-231 [2], 1000 nM | 75.7
MDA-MB-231 [2], 10000 nM | 22.4
MDA-MB-231 [10], 1 nM | 110
MDA-MB-436, 10 nM | 94
MDA-MB-436, 1000 nM | 61.2
MDA-MB-436, 10000 nM | 28.9
MDA-MB-453, 3 nM | 116
MDA-MB-453, 30 nM | 96.1
MDA-MB-453, 100 nM | 87.5
MDA-MB-468, 10 nM | 109
MDA-MB-468, 1000 nM | 84.8
MDA-MB-468, 10000 nM | 8.4
MFM-223 [1], 10 nM | 88
MFM-223 [1], 1000 nM | 80.9
MFM-223 [1], 10000 nM | 31.6
MFM-223 [9], 1 nM | 91.2
SK-BR-3 [6], 10 nM | 101
SK-BR-3 [6], 1000 nM | 55.5
SK-BR-3 [6], 10000 nM | 3.29
SK-BR-3 [14], 1 nM | 93
